{"source": "paper PMC6014988", "about": "“Precision therapeutic targeting of human cancer cell motility” (Nature Communications, 2018)", "key": {"PC3-luc cells": {"test_system": "PC3-luc cells", "experiment": "Intracardiac injection PC3-luc bone metastasis model", "type": "in vivo, mouse", "description": "Fig. 3 KBU2046 inhibits bone destruction. a Treatment schema. Athymic mice were given intracardiac (IC) injections of PC3-luc cells on day 0 under ultrasound guidance, and underwent weekly IVIS imaging starting 7 days post injection. Cohorts of N = 20 control, N = 20 pre (treatment from 3 days prior to IC injection through end of the experiment), N = 10 Pre7Stop (treatment from 3 days prior to IC injection through 7 days post IC injection), and N = 10 post-treatment (treatment from 3 days post IC injection through end of the experiment) mice were dosed with 80 mg/kg KBU2046 daily by oral gavage and mock-treated with vehicle all other times. Whole-body (b) and mandible (c) flux are depicted, as determined from weekly IVIS imaging. d At week 4 post injection (i.e., at the end of the experiment), CT scans were performed on control, pre-, and post-treatment cohorts, and mandibular destruction quantified. e Representative images of pre and control mice are depicted. Arrows denote areas of bone destruction in controls, and corresponding areas in the pre mouse. Student’s t-test (b, c) and Fisher’s exact test (d) P values between the denoted cohorts are shown\nProstate cancer: intracardiac (IC) injection: IC injection of 4.0 × 10^5 PC3-Luc cells into male 6–8 week old athymic mice with IVIS imaging was performed as described, and was done so under ultrasound guidance (Supplementary Fig. 9). Mice were treated pre- and/or post-IC injection, as indicated. The pretreatment cohort emulates a metastasis naive model wherein cell motility is required in order for cells to invade into a distant organ, in this case, the jaw bone, for which this model is widely used. If KBU2046 were inhibiting cell motility, then in this model it would act to inhibit metastasis formation. In contrast, with the post-implantation cohort, cells have already completed invasion into the jaw bone, and distant metastasis have been established. […] IVIS imaging was performed 30 min after IC injection to confirm systemic distribution of cells, and thereafter weekly for 4 weeks starting 7 days post injection, allowing real-time tracking of metastasis development and growth. Computed tomograpgy (CT) (Inveon, Seimens) radiographic imaging was performed on some mice, as indicated, and resultant images analyzed in a blinded fashion using Inveon Research Workplace 4.2 visualization/analysis software and ImageJ. […] Experimental groups were randomly assigned to cages prior to the initiation of the study. CT images were analyzed in a blinded fashion to determine total bone loss using both the Invenon Research Workplace 4.2 visualization/analysis software and ImageJ. Specifically, to asses bone loss in an unbiased manner, an operator randomly loaded images into the system and blocked out identifying information prior to analysis by two separate blinded individuals."}, "[1]": {"biological_target": "T1, cysteine and glycine-rich protein 1 (Homo sapiens, UniProt P21291)", "T1 construct": "purchased Invitrogen", "T1 sequence (P21291 whole entry)": "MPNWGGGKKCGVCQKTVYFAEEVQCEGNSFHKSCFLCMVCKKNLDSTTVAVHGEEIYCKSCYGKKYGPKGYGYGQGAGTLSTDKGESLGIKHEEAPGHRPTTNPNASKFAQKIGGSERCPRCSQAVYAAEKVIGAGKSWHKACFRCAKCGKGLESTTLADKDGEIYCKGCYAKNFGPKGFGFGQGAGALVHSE", "experiment": "ProtoArray binding, cysteine and glycine-rich protein 1", "settings": "10 fold excess free KBU2046", "experimental": "(§1) The ProtoArray® assay, using the Human Protein Microarray platform, was performed by Invitrogen. […]\n(§2) followed by detection with FITC-streptavidin, and visualization by fluorescent microscopy (with equal exposure times). (d) Protein array hybridization. KBU2046-biotin was hybridized to ProtoArray® Human Protein Microarray’s at 0.5 and 10 µM with and without 10 fold excess free KBU2046. We first sought proteins that met the following criteria, and did so at both 0.5 and 10 µM concentrations of KBU2046-biotin (in the absence of free KBU2046): Z-Score greater than 2.5, Z-Factor greater than 0.5, CI P-value less than 0.05, negative control value <2,000 (relative fluorescence units; RFUs), and a signal/negative control signal of >10 and >5 for 10 µM and 0.5 µM conditions, respectively. This yielded 3 proteins, shown in table, for an initial hit rate of 0.03%. We then required free KBU2046 to inhibit binding by >75%. Of the two remaining candidates, we eliminated isovaleryl-CoA dehydrogenase (ICD). Its binding signal doubled on […]\n(§3) suspected non-specific binding by the biotin-linker moiety. We deemed cysteine and glycine-rich protein 1 (CSRP1) our top priority protein, though its binding characteristics at 10 µM + free KBU2046 were similar to ICD, albeit not as extreme. We thus evaluated whether KBU2046- […]\n(§4) There were two additional notable findings from protein array studies. […]"}, "[2]": {"biological_target": "T2, Isovaleryl-CoA dehydrogenase (Homo sapiens, UniProt P26440)", "T2 construct": "purchased Invitrogen", "T2 sequence (P26440 33-426)": "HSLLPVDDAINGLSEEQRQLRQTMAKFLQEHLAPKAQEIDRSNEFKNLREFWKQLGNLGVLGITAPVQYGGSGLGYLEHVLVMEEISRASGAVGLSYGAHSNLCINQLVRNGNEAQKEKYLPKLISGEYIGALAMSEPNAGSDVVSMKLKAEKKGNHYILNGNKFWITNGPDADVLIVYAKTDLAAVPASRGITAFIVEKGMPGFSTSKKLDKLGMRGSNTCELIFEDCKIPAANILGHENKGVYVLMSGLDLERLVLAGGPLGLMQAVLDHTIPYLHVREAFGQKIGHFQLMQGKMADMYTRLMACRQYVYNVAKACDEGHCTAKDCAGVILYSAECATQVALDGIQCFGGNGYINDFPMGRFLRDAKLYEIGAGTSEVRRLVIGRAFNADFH", "experiment": "ProtoArray binding, Isovaleryl-CoA dehydrogenase", "settings": "10 fold excess free KBU2046", "experimental": "as §1, §2, §3, §4"}, "442 kinases": {"test_system": "442 kinases", "experiment": "KINOMEscan assay", "type": "binding", "settings": "10 µM; negatives include MKK4, p38 MAPK, RAF1", "experimental": "Initial assays were performed with PC3 and PC3-M cells (PC3 cell data not shown). However, as these studies yielded similar findings, subsequent screening assays utilized only PC3-M cells. In designing chemical synthetic routes, priority was given to efficacy and toxicity parameters. Additional design features were also included in our chemical […]\ntoxicity parameters. These additional design features included removal of fragments that mediated genistein binding to the estrogen receptor (ER), as determined by ER-genistein 3D x-ray crystal structures (Protein Data Base IDs:1X7R and 1X7J, for crystal structures of ERα and ERβ with bound genistein, respectively). These features also included removal of chemical fragments that are considered to increase susceptibility to rapid metabolism, especially that by the cytochrome P450 (CYP) pathway. The final feature involved incorporation of chemical characteristics previously shown to be associated with effective drugs and which together generally impart more favorable pharmacologic properties, including those described by Lipinski […]\nSupplementary Note 2. […] Three […]\ndifferent assays systems were employed.\nKinase assay system #1. The KINOMEscan™ assay (Ambit Biosciences). This assay evaluates 442 kinases, including 400 distinct parental kinases plus mutants known to alter activity or responsiveness. […]"}, "[3]": {"settings": "pre-cohort, 80 mg/kg daily oral gavage"}}, "data": [{"smiles": "O=C1c2ccccc2OCC1c1ccc(F)cc1", "note": "(racemic) [KBU2046, (±)-3(4-fluorophenyl)chroman-4-one]", "values": [{"measurement": "total body metastasis", "setting": "PC3-luc cells; Pre7Stop cohort", "value": "total body metastasis is significantly decreased"}, {"measurement": "metastasis to the total body and jaw", "setting": "PC3-luc cells; post-cohort, treatment from 3 days post IC injection", "value": "do not differ from control mice"}, {"measurement": "metastasis to the mandible", "setting": "PC3-luc cells; [3]", "value": "decreased metastasis to the mandible"}, {"measurement": "total metastatic burden", "setting": "PC3-luc cells; [3]", "value": "significant decrease in total metastatic burden"}, {"measurement": "destruction of bone (mandible, CT)", "setting": "PC3-luc cells; pre-cohort, week 4", "value": "decreased destruction of bone"}, {"measurement": "% inhibition by competitor", "setting": "[1]; 0.5 uM KBU2046-biotin", "value": 79, "unit": "%"}, {"measurement": "% inhibition by competitor", "setting": "[1]; 10 uM KBU2046-biotin", "value": 33, "unit": "%"}, {"measurement": "% inhibition by competitor", "setting": "[2]; 0.5 uM KBU2046-biotin", "value": 80, "unit": "%"}, {"measurement": "% inhibition by competitor", "setting": "[2]; 10 uM KBU2046-biotin", "value": 12, "unit": "%"}, {"measurement": "inhibition of kinase binding to immobilized substrate", "setting": "442 kinases", "value": "completely negative"}]}]}
